Test results: ChEMBL document CHEMBL3046165, “Synthesis of new cyclic imides derivatives with potential hypolipidemic activity” (Med Chem Res, 2012)

What was measured:
Rattus norvegicus [1] = experiment: Toxicity in triton WR-1339-induced Rattus norvegicus albino Wistar (rat) hyperlipidemic model assessed as increase of serum total cholesterol level at 150 mg/kg, po qd after 24 hr; type: organism-based; set-up: dose 150 mg/kg, route oral; settings: in vivo
Rattus norvegicus [2] = experiment: Toxicity in triton WR-1339-induced Rattus norvegicus albino Wistar (rat) hyperlipidemic model assessed as increase of serum LDL level at 150 mg/kg, po qd after 24 hr; type: organism-based; set-up: dose 150 mg/kg, route oral; settings: in vivo
Rattus norvegicus [3] = experiment: Toxicity in triton WR-1339-induced Rattus norvegicus albino Wistar (rat) hyperlipidemic model assessed as increase of serum total triglyceride level at 150 mg/kg, po qd after 24 hr; type: organism-based; set-up: dose 150 mg/kg, route oral; settings: in vivo
Rattus norvegicus [4] = experiment: Toxicity in triton WR-1339-induced Rattus norvegicus albino Wistar (rat) hyperlipidemic model assessed as reduction of serum HDL level at 150 mg/kg, po qd after 24 hr; type: organism-based; set-up: dose 150 mg/kg, route oral; settings: in vivo
Rattus norvegicus [5] = experiment: Hypolipidemic activity in triton WR-1339-induced Rattus norvegicus albino Wistar (rat) hyperlipidemic model assessed as reduction of serum total cholesterol level at 150 mg/kg, po qd after 24 hr; type: functional; set-up: scale not given: the % may be the effect or the level left
Rattus norvegicus [6] = experiment: Hypolipidemic activity in triton WR-1339-induced Rattus norvegicus albino Wistar (rat) hyperlipidemic model assessed as reduction of serum total triglyceride level at 150 mg/kg, po qd after 24 hr; type: functional; set-up: scale not given: the % may be the effect or the level left
Rattus norvegicus [7] = experiment: Hypolipidemic activity in triton WR-1339-induced Rattus norvegicus albino Wistar (rat) hyperlipidemic model assessed as increase of serum HDL level at 150 mg/kg, po qd after 24 hr; type: functional

SMILES | Activity (Rattus norvegicus [1]) | Activity (Rattus norvegicus [2]) | Activity (Rattus norvegicus [3]) | Activity (Rattus norvegicus [4]) | Activity (Rattus norvegicus [5]) | Activity (Rattus norvegicus [6]) | Activity (Rattus norvegicus [7])
CC(C(=O)NCc1ccccc1)N1C(=O)c2ccccc2C1=O (centres undefined) | Toxic | 35.5% | Toxic | Toxic |  |  | 
CC(C(=O)Nc1ccccc1)N1C(=O)c2ccccc2C1=O (centres undefined) |  |  |  |  | <24% | <24% | 
CCNC(=O)C(C)N1C(=O)c2ccccc2C1=O (centres undefined) | Toxic | 35.5% | Toxic | Toxic |  |  | 
CCCNC(=O)C(C)N1C(=O)c2ccccc2C1=O (centres undefined) | Toxic | 35.5% | Toxic | Toxic |  |  | 
CC(C)NC(=O)C(C)N1C(=O)c2ccccc2C1=O (centres undefined) | Toxic | 35.5% | Toxic | Toxic |  |  | 
CC(C(=O)NCCc1ccccc1)N1C(=O)c2ccccc2C1=O (centres undefined) | Toxic | 35.5% | Toxic | Toxic |  |  | 
CC(C(=O)N1CCCC1)N1C(=O)c2ccccc2C1=O (centres undefined) | Toxic | 35.5% | Toxic | Toxic |  |  | 
CCNC(=O)C(C)N1C(=O)c2cccc3cccc(c23)C1=O (centres undefined) |  | 4.5% |  |  |  |  | 29.3%
CC(C(=O)Nc1ccccc1)N1C(=O)c2cccc3cccc(c23)C1=O (centres undefined) |  | 4.5% |  |  |  |  | 29.3%
CC(C(=O)NCc1ccccc1)N1C(=O)c2cccc3cccc(c23)C1=O (centres undefined) |  | 4.5% |  |  |  |  | 29.3%
CC(C(=O)NCc1ccccc1)n1c(=O)c2ccccc2c2ccccc2c1=O (centres undefined) |  | 4.5% |  |  |  |  | 29.3%
CCNC(=O)c1ccccc1C(=O)NC(C)C(=O)NCC (centres undefined) |  |  |  |  | 48.6% | 46.5% | 
CC(C)OC(=O)C(C)(C)Oc1ccc(C(=O)c2ccc(Cl)cc2)cc1 [FENOFIBRATE] |  | 13% |  |  | 23% | 20% | 
